{"source": "patent US10940210B2", "about": "“BSH complex for boron neutron capture therapy” (National University Corporation Okayama University, priority 2016, dated 2021)", "key": {"[1]": {"tested_on": "glioma cell line U87ΔEGFR", "assay": "Delivery of complex into a cancer cell, boron concentration in the cell by ICP-AES", "type": "cell-based, human", "conditions": "BSH 2 mM alone or with A6K (hydrochloride salt) 200 μM, 37° C. for 24 hours", "protocol": "Mixing times were 10 minutes, 30 minutes, and 180 minutes. The obtained complex was diluted (pH 7.1 to 7.3) with PBS and added to a glioma cell line U87ΔEGFR in a petri dish. […] Each cell sample obtained by incubating, with the complex, at 37° C. for 3 hours, 12 hours, and 24 hours was subjected to ICP-AES thereby to measure a boron concentration in the cell. […] The incubation time of 12 hours was sufficient. […] The time for mixing with stirring of 10 minutes was sufficient. Increases in the BSH amounts in the cell were detected as an incubation time was extended.\nA6R (TFA salt) and BSH were mixed with stirring by the same method as the method described in the above (1) to prepare a complex. The obtained complex was diluted (pH 7.1 to 7.3) with PBS and added to a glioma cell line U87ΔEGFR in a petri dish. Each cell sample obtained by incubating, with the complex, at 37° C. for 6 hours, 12 hours, and 24 hours was subjected to ICP-AES thereby to measure a boron concentration in the cell.\nThe complex containing A6K (hydrochloride salt) and BSH obtained in the above (1) (a molar ratio of A6K (hydrochloride salt):BSH was 1:10) was added to a glioma cell line U87ΔEGFR in a similar procedure to that described in Example 2 (2). The complex was added in an amount in such a way that final concentrations of A6K (hydrochloride salt) and BSH were as shown in FIG. 11. […]"}, "U87ΔEGFR brain tumor": {"tested_on": "U87ΔEGFR brain tumor", "assay": "Tumor-specific introduction of BSH in brain tumor model animal, anti-BSH immunohistostaining", "type": "in vivo, mouse", "conditions": "200 μL tail vein, BSH 20 mM (with A6K 2 mM in complex); 12 hours after administration", "protocol": "Animals used in the present experiment were bred, housed and used in accordance with the procedure approved (approval code: OKU-2016475) by the Animal Care and Use Committee, Okayama University. Tumor-bearing model mice (BALB/C nu/nu, female, 6 to 8 weeks of age, 25 g, Japan SLC, Inc., Shizuoka) were created by directly injecting 3 μL of a U87ΔEGFR cell suspension (1×10^5 cells/μL) into the brain. Two weeks later, 200 μL of the complex containing A6K and BSH (A6K 2 mM/BSH 20 mM) and 200 μL of BSH 20 mM as control experiments were respectively administered from the tail vein (given that a mouse body weight was 20 g, A6K-HCl was converted to 8 mg/kg and BSH was converted to 33.4 mg/kg.)\nThe complex used in the experiment (the compound described in Example 4 (1)) was prepared as follows. 70 μL of MQ water was added to 70 μL of A6K 10 mM to adjust to A6K 5 mM. […]\nTwelve hours after administration, the mouse brain was embedded using an embedding medium for a frozen tissue section, tissue tek O.C.T compound. […] After washing, the section was immersed for 2 hours at room temperature in a solution of a donkey anti-mouse antibody (Life Technologies) labelled with Alexa-Fluor 488 (green fluorescence) (20 μg/mL) and a solution of a goat anti-rabbit antibody (Life Technologies) labelled with Alexa-Fluor 555 (red fluorescence) (2 μg/mL). […]"}}, "data": [{"substance": "mercaptoundecahydrododecaborate [BSH]", "values": [{"measurement": "intracellular boron concentration", "setting": "[1]", "result": "595.2±105.1", "unit": "ng/10^6 cells"}, {"measurement": "location of BSH relative to tumor tissue (HLA-A positive)", "setting": "U87ΔEGFR brain tumor", "result": "not different between tumor tissues and normal brain tissues"}, {"measurement": "presence of BSH in brain tissue (green fluorescence)", "setting": "U87ΔEGFR brain tumor", "result": "weak"}]}]}
